Assay results taken from publication PMC11246312, “Anthracene detoxification by Laccases from indigenous fungal strains Trichoderma lixii FLU1 and Talaromyces pinophilus FLU12” (Biodegradation, 2024).

Legend:
TpFLU12L = test system: T1, TpFLU12L; assay: residual anthracene by UV absorbance at […] nm after ethyl acetate extraction; Michaelis-Menten fit; type: biochemical, Talaromyces pinophilus; conditions: no mediator; anthracene 50-400 mg/L, Na-acetate 50 mM pH 5, Tween 80 1%, 30 °C, laccase 3 U, 96 h
T1 construct: native secreted enzyme purified from anthracene-induced culture (ammonium sulfate, DEAE, Sephadex G-100); blue laccase

TlFLU1L = test system: T2, TlFLU1L; assay: as above; type: biochemical, Trichoderma lixii; conditions: no mediator; anthracene 50-400 mg/L, Na-acetate 50 mM pH 5, Tween 80 1%, 30 °C, laccase 3 U, 96 h
T2 construct: native secreted enzyme purified from anthracene-induced culture (ammonium sulfate, DEAE, Sephadex G-100); yellow laccase; 44 kDa by SDS-PAGE

Structure (SMILES): c1ccc2cc3ccccc3cc2c1 [anthracene]
- Km (mg/L) / TpFLU12 (TpFLU12L): 73.3 ± 0.07 mg/L
- Km (mg/L) / TlFLU1 (TlFLU1L): 173.2 ± 0.06 mg/L
